The results in this text go back to US7498353B2, “Heterocyclic anti-viral compounds comprising metabolizable moieties and their uses” (priority 2005, dated 2009).

Where only a bound is given, the exact number is not on record here.

The test system of test [1] is HCV replicon in 5-2 Luc replicon-comprising cells. Description: HCV replicon assay, luciferase readout (HEPC_REPLICON-LUC). Conditions: Hepatitis C virus; 5-2 Luc replicon cells, 50% reduction in luciferase emission; read-out: HEPC_REPLICON-LUC Result Value (IC50). Type of test: cell-based. The source says:
In one embodiment, the inhibitory activity of the metabolically active agent of the prodrug can be confirmed in a replicon assay that assesses the ability of a test compound to block or inhibit HCV replication in replicon cells. One example of a suitable replicon assay is the liver cell-line Huh 7-based replicon assay described in Lohmann et al., 1999, Science 285:110-113. A specific example of this replicon assay which utilizes luciferase translation is provided in the Examples Section. In one embodiment of this assay, the amount of test prodrug that yields a 50% reduction in translation as compared to a control cell (IC50) may be determined.
The inhibitory activity of certain prodrugs of the invention, which may inhibit HCV translation or replication prior to metablism and/or are metabolized into active agents, was confirmed using an HCV replicon assay. The HCV replicon can include such features as the HCV 5′ untranslated region including the HCV IRES, the HCV 3′ untranslated region, selected HCV genes encoding HCV polypeptides, selectable markers, and a reporter gene such as luciferase, GFP, etc. In the assay, actively dividing 5-2 Luc replicon-comprising cells (obtained from Ralf Bartenschlager; see Lohmann et al., 1999, Science 285:110-113) were seeded at a density of between about 5,000 and 7,500 cells/well onto 96 well plates (about 90 μl of cells per well) and incubated at 37° C. and 5% CO2 for 24 hours. Then, the test prodrug (in a volume of about 10 μl) was added to the wells at various concentrations and the cells were incubated for an additional 24-48 hours before luciferase assay. The media was aspirated from each well and Bright-Glo (Promega, Madison, Wis.) luciferase assay reagents were added to each well according to the manufacturer's instructions. Briefly, the Bright-Glo reagent was diluted 1:1 with PBS and 100 μl of diluted reagent was added to each well. After 5 min of incubation at room temperature, luciferin emission was quantified with a luminometer. In this assay, the amount of test prodrug that yielded a 50% reduction in luciferase emission (IC50) was determined. This IC50 value may represent the antiviral activity of the prodrug itself, the activity of prodrug transformed into its active metabolized form, or a combination of the two.
(In antiviral work, replicon cells carry a viral genome segment that copies itself.)

Test [2] relates to HCV NS5A protein in 9-13 replicon cells. The test is described as follows: Quantitative Western blot replicon assay (HEPC_REPLICON-ICWESTERN). Type of test: cell-based, Hepatitis C virus (HCV). Conditions: Hepatitis C virus; 9-13 replicon cells, 50% reduction in NS5A protein; read-out: HEPC_REPLICON-ICWESTERN Result Value (IC50). How it is done: Alternatively, the inhibitory activity of the metabolically active agents of the prodrugs can be confirmed using a quantitative Western immunoblot assay utilizing antibodies specific for HCV non-structural proteins, such as NS3, NS4A NS5A and NS5B. In one embodiment of this assay, replicon cells are treated with varying concentrations of test prodrug to determine the concentration of the metabolically active agent of the test prodrug that yields a 50% reduction in the amount of a non-structural protein produced as compared to a control sample (IC50). A single non-structural protein may be quantified or multiple non-structural proteins may be quantified. Antibodies suitable for carrying out such immunoblot assays are available commercially (e.g., from BIODESIGN International, Saco, Me.).
Certain prodrugs of the invention, which may inhibit HCV translation or replication prior to metablism and/or are metabolized into active agents, were also tested for their ability to inhibit HCV replication using a quantitative Western blot analysis with antibodies specific for the HCV NS5A or other non-structural proteins. Actively dividing 9-13 replicon cells were seeded into 6-well plates at a density of 1×10^5 cells/well in a volume of 2 ml/well and incubated at 37° C. and 5% CO2 for 24 hours. Various concentrations of test prodrugs (in a volume of 10 ul) were added to the wells and the cells incubated for another 48 hours. Protein samples were prepared from the cultured cells, resolved on a SDS-PAGE gel and transferred to a nitrocellulose membrane. The membrane was blocked with 5% non-fat milk in PBS for 1 hour at room temperature. Primary antibody (anti NS5A antibody; BIODESIGN International, Saco, Me.) incubation was performed for 1 hour at room temperature, after which the membrane was washed 3 times (for 15 min per time) with PBST (PBS plus 0.1% Tween 20). Horseradish peroxidase conjugated secondary antibody incubation was performed for 1 hour at room temperature and the membrane was washed 3 times (for 15 min per time) with PBST. The membrane was then soaked in substrate solution (Pierce) and exposed to a film or quantified using an imager. In this assay, the amount of test prodrug that is believed to be transformed into an active agent under the given conditions that yielded a 50% reduction in the amount of NS5A protein translated as compared to a control sample (IC50) was determined.

In the case of `O=C(C(Cl)Cl)N(CCP(=O)(O)O)c1cccc(-c2cc(-c3c(Cl)cccc3Cl)no2)c1` [Cpd. No. 2, 2-(2,2-Dichloro-N-(3-(3-(2,6-dichlorophenyl)isoxazol-5-yl)phenyl)acetamido)ethylphosphonic acid], the IC50 in test [1] and in test [2] was > 20000 nM each time.

Consider `CC(C)C(N)C(=O)CCN(C(=O)C(Cl)Cl)c1ccnc(-c2cc(-c3c(Cl)cccc3Cl)no2)c1` (centres unmarked) [Cpd. No. 3, N-(4-Amino-5-methyl-3-oxohexyl)-2,2-dichloro-N-(2-(3-(2,6-dichlorophenyl)isoxazol-5-yl)pyridin-4-yl)acetamide], for which the IC50 in test [1] and in test [2] was < 1000 nM each time. `NC(CCC(=O)CCN(C(=O)C(Cl)Cl)c1ccnc(-c2cc(-c3c(Cl)cccc3Cl)no2)c1)C(=O)O` (centres unmarked) [Cpd. No. 5, 2-Amino-7-(2,2-dichloro-N-(2-(3-(2,6-dichlorophenyl)isoxazol-5-yl)pyridin-4-yl)acetamido)-5-oxoheptanoic acid]: the IC50 in test [1] and in test [2] was < 1000 nM throughout. On to `COCN(C(=O)C(Cl)Cl)c1ccnc(-c2cc(-c3c(Cl)cccc3Cl)no2)c1` [Cpd. No. 7, 2,2-Dichloro-N-(2-(3-(2,6-dichlorophenyl)isoxazol-5-yl)pyridin-4-yl)-N-(methoxymethyl)acetamide], for which the IC50 is 1000 to 20000 nM in test [1] and < 1000 nM in test [2]. Turning to `CC(C)OCN(C(=O)C(Cl)Cl)c1ccnc(-c2cc(-c3c(Cl)cccc3Cl)no2)c1` [Cpd. No. 9, 2,2-Dichloro-N-(2-(3-(2,6-dichlorophenyl)isoxazol-5-yl)pyridin-4-yl)-N-(isopropoxymethyl)acetamide], in test [1], the half-maximal inhibitory concentration (IC50) was > 20000 nM. As for `NCCN(C(=O)C(Cl)Cl)c1cccc(-c2cc(-c3c(Cl)cccc3Cl)no2)c1` [Cpd. No. 16, N-(2-Aminoethyl)-2,2-dichloro-N-(3-(3-(2,6-dichlorophenyl)isoxazol-5-yl)phenyl)acetamide], the IC50 in test [1] and in test [2] was 1000 to 20000 nM throughout. `CC(C)[C@H](NC(=O)OC(C)(C)C)C(=O)N[C@H](CN(C(=O)C(Cl)Cl)c1cccc(-c2cc(-c3c(Cl)cccc3Cl)no2)c1)C(C)C` [Cpd. No. 27, tert-Butyl (S)-1-((S)-1-(2,2-Dichloro-N-(3-(3-(2,6-dichlorophenyl)isoxazol-5-yl)phenyl)acetamido)-3-methylbutan-2-ylamino)-3-methyl-1-oxobutan-2-ylcarbamate]: the IC50 in test [1] was > 20000 nM. Consider `CC[C@H](C)[C@H](NC(=O)OC(C)(C)C)C(=O)N[C@H](CN(C(=O)C(Cl)Cl)c1cccc(-c2cc(-c3c(Cl)cccc3Cl)no2)c1)C(C)C` [Cpd. No. 28, tert-Butyl (2S,3S)-1-((S)-1-(2,2-Dichloro-N-(3-(3-(2,6-dichlorophenyl)isoxazol-5-yl)phenyl)acetamido)-3-methylbutan-2-ylamino)-3-methyl-1-oxopentan-2-ylcarbamate], for which the half-maximal inhibitory concentration (IC50) in test [1] is > 20000 nM. Still for that read-out and setting: as for `CC[C@H](C)[C@H](NC(=O)OC(C)(C)C)C(=O)NCCN(C(=O)C(Cl)Cl)c1cccc(-c2cc(-c3c(Cl)cccc3Cl)no2)c1` [Cpd. No. 29, tert-Butyl (2S,3S)-1-(2-(2,2-Dichloro-N-(3-(3-(2,6-dichlorophenyl)isoxazol-5-yl)phenyl)acetamido)ethylamino)-3-methyl-1-oxopentan-2-ylcarbamate], the figure is > 20000 nM; as for `CC(C)[C@H](NC(=O)OC(C)(C)C)C(=O)NCCN(C(=O)C(Cl)Cl)c1cccc(-c2cc(-c3c(Cl)cccc3Cl)no2)c1` [Cpd. No. 30, (S)-tert-Butyl 1-(2-(2,2-Dichloro-N-(3-(3-(2,6-dichlorophenyl)isoxazol-5-yl)phenyl)acetamido)ethylamino)-3-methyl-1-oxobutan-2-ylcarbamate], > 20000 nM. Consider `CC(C)[C@@H](CN(C(=O)C(Cl)Cl)c1cccc(-c2cc(-c3c(Cl)cccc3Cl)no2)c1)NC(=O)[C@@H](N)c1ccccc1` [Cpd. No. 40, N-((S)-2-((S)-2-Amino-2-phenylacetamido)-3-methylbutyl)-2,2-dichloro-N-(3-(3-(2,6-dichlorophenyl)isoxazol-5-yl)phenyl)acetamide], for which the 50% inhibitory concentration (IC50) in test [2] was > 20000 nM.

On to `CC(C)[C@@H](CN(C(=O)C(Cl)Cl)c1cccc(-c2cc(-c3c(Cl)cccc3Cl)no2)c1)NC(=O)[C@H](N)c1ccccc1` [Cpd. No. 41, N-((S)-2-((R)-2-Amino-2-phenylacetamido)-3-methylbutyl)-2,2-dichloro-N-(3-(3-(2,6-dichlorophenyl)isoxazol-5-yl)phenyl)acetamide], for which the IC50 in test [2] is > 20000 nM.

For `CC(C)[C@@H](CN(C(=O)C(Cl)Cl)c1cccc(-c2cc(-c3c(Cl)cccc3Cl)no2)c1)NC(=O)C1CC(O)CN1` (stereo partly drawn) [Cpd. No. 42, N-((S)-1-(2,2-Dichloro-N-(3-(3-(2,6-dichlorophenyl)isoxazol-5-yl)phenyl)acetamido)-3-methylbutan-2-yl)-4-hydroxypyrrolidine-2-carboxamide], the half-maximal inhibitory concentration (IC50) in test [2] is > 20000 nM. `CNCC(=O)N[C@H](CN(C(=O)C(Cl)Cl)c1cccc(-c2cc(-c3c(Cl)cccc3Cl)no2)c1)C(C)C` [Cpd. No. 43, (S)-2,2-Dichloro-N-(3-(3-(2,6-dichlorophenyl)isoxazol-5-yl)phenyl)-N-(3-methyl-2-(2-(methylamino)acetamido)butyl)acetamide]: in test [2], the IC50 was in the range of 1000 to 20000 nM. For the compound `CC(C)C(NC(=O)C(NC(=O)OC(C)(C)C)C(C)C)C(=O)CCN(C(=O)C(Cl)Cl)c1ccnc(-c2cc(-c3c(Cl)cccc3Cl)no2)c1` (centres unmarked) [Cpd. No. 47, tert-Butyl 1-(6-(2,2-Dichloro-N-(2-(3-(2,6-dichlorophenyl)isoxazol-5-yl)pyridin-4-yl)acetamido)-2-methyl-4-oxohexan-3-ylamino)-3-methyl-1-oxobutan-2-ylcarbamate], the IC50 in test [1] and in test [2] was < 1000 nM throughout.

As for `CC(C)C(N)C(=O)NC(C(=O)CCN(C(=O)C(Cl)Cl)c1ccnc(-c2cc(-c3c(Cl)cccc3Cl)no2)c1)C(C)C` (centres unmarked) [Cpd. No. 48, 2-Amino-N-(6-(2,2-dichloro-N-(2-(3-(2,6-dichlorophenyl)isoxazol-5-yl)pyridin-4-yl)acetamido)-2-methyl-4-oxohexan-3-yl)-3-methylbutanamide], the half-inhibitory concentration (IC50) in test [1] and in test [2] was < 1000 nM throughout. Regarding `CC(C)C(NC(=O)CNC(=O)OC(C)(C)C)C(=O)CCN(C(=O)C(Cl)Cl)c1ccnc(-c2cc(-c3c(Cl)cccc3Cl)no2)c1` (centres unmarked) [Cpd. No. 49, tert-Butyl 2-(6-(2,2-Dichloro-N-(2-(3-(2,6-dichlorophenyl)isoxazol-5-yl)pyridin-4-yl)acetamido)-2-methyl-4-oxohexan-3-ylamino)-2-oxoethylcarbamate], the IC50 in test [1] and in test [2] was < 1000 nM each time. On to `CC(C)[C@@H](N)C(=O)CCN(C(=O)C(Cl)Cl)c1ccnc(-c2cc(-c3c(Cl)cccc3Cl)no2)c1` [Cpd. No. 61, (R)-N-(4-Amino-5-methyl-3-oxohexyl)-2,2-dichloro-N-(2-(3-(2,6-dichlorophenyl)isoxazol-5-yl)pyridin-4-yl)acetamide], for which the 50% inhibitory concentration (IC50) in test [1] is < 1000 nM.

As usually defined, the IC50 is the concentration needed to halve the response being measured.
